Experimental data taken from patent publication US12527766B2, “Methods of treating acute coronary syndrome using 3,3′-diindolylmethane” (Boulder BioScience LLC, priority 2020, dated 2026).
Counter-ions that a name gives are not always drawn.

Columns and labels:
[1] = cited from earlier work; for Log P of Second Active Agent: co-formulation table; for Log P: table of second active agents
[2] = in vivo and in vitro; cited from earlier work
[3] = tested on: human neutrophils; test: Fluorescent imaging of extracellular DNA (Sytox Orange microscopy); assay type: cell-based
Text: (§1) Neutrophil isolation: Neutrophils were isolated from the peripheral blood of healthy donors, under a protocol approved by an institutional ethics committee. All subjects gave written informed consent in accordance with the Declaration of Helsinki. Briefly, whole blood was collected using an anticoagulant (sodium citrate), and isolated as previously described using a Percoll gradient separation of neutrophils from other leukocytes (Modulation of multiple neutrophil functions by preparative methods or trace concentrations of bacterial lipopolysaccharide. Haslett C, et al. Am J Pathol. 1985 April; 119(1): 101-10). Neutrophils were suspended in RPMI, 2% heat-inactivated human plasma, and 10 mM HEPES, pH7.5 (complete RPMI) to a neutrophil specific concentration of 2.2×10^6 neutrophils/ml.
Fluorescent imaging of extracellular DNA for photo-micrograph data: Neutrophils (5×10^5 per well) were spotted on a glass microscope chamber slide (Ibidi) and cells were stimulated for 4 hours as indicated above with F Protein or LPS, at 37° C. in a humidified chamber, and stained with 0.2 μM Sytox Orange for the final 10 minutes. The slides were fixed in 2% formaldehyde (Sigma) for 10 min at room temperature and imaged.

[4] = tested on: carotid artery thromboses; test: FeCl3 carotid artery thrombosis in mice, H&E fibrin content; assay type: in vivo, mice (C57BL6/J); details: DIM treated animals (oral and IV groups)
Procedure: Animals: All mice were of C57BL6/J background. Specific pathogen-free mice were obtained from Envigo, USA. All mice used for experiments were between 11 and 14 weeks old. Each experimental group was weight and sex-matched so that experiments were carried out on male and female mice with similar weight and in equal sex distribution between groups. All procedures were performed on anaesthetized animals using a uniform technique of inhaled Isoflurane combined with supplemental parenteral agents. Animals were sacrificed under deep anesthesia. All animal experiments were carried out according to the guidelines from the Guide for Care and Use of Laboratory Animals and The Public Health Service (PHS) Policy on Humane Care and Use of Laboratory Animals. All experimental procedures performed on animals met the requirements of the Guide for the protection of animals used for scientific purposes. Induction of arterial thrombosis after Ferric Chloride exposure: For thrombus induction in the distal carotid artery in vivo, local application of FeCl3 was used following an established method (Wang et al, 2005, supra). In brief, mice were anesthetized using 2-3% inhaled isoflurane, shifting to lower dose maintenance isoflurane and supplemented with a fixed combination of intra-peritoneal buprenorphine, midazolam and dexmedetomidine. […]

[5] = following oral administration; cited from earlier work
[6] = tested on: human neutrophils; test: Sytox Orange extracellular DNA release (NET) assay; assay type: cell-based
Text: as §1
First Neutrophil Extracellular Trap (NET) indicating assay: A Sytox Orange extracellular DNA release assay was utilized. For the experiments using DIM from self-emulsifying SMEDDS BR-9001 (i.e., Example 1), purified human neutrophils (2×10^5 per sample) in complete RPMI were allowed to settle in 24-well plates in the presence of DIM from self-emulsifying DIM formulation SMEDDS—BR-9001 (12% DIM) providing experimental DIM concentrations of 1, 3, 10, and 30 μM. Control wells received SMEDDS excipient vehicle mixture alone (diluted to provide excipient mixture concentrations equivalent to excipients present in the 3 and 30 μM DIM experimental wells). Neutrophils (2×10^5 per well) were plated in a black-walled 96-well plate and allowed to settle in the presence of DIM from BR-9001 or excipient vehicle control for 30 min. After 30 minutes neutrophils in wells were stimulated with recombinant fusion protein (F Protein (1 μg/ml, Sino Biologicals) or phenolextracted lipopolysaccharide (LPS; 10 μg/ml; List Biologicals). and 5 μM Sytox Orange (Thermo Fisher) was added and gently mixed. The plate was placed in a prewarmed (37° C.) fluorescence plate reader (BioTek FLX-800) and fluorescence read at excitation/emission of 540/600 every 10 minutes over 4 hours. Following this, 1% saponin was added to lyse neutrophils to provide 100% DNA release for experiments presented in FIGS. 1A and 1B. This allowed results to be presented as proportion of total DNA in these experiments. Otherwise results are reported as relative fluorescent units (FIGS. 3A and 3B). The kinetics or 4-hour results were reported as described (Sec FIGS. 1A and 1B and FIG. 3A).
A second set of experiments were performed using crystalline DIM solubilized in DMSO prior to addition to culture wells. […] The plate was placed in a prewarmed (37° C.) fluorescence plate reader and fluorescence read as above every 10 minutes over 4 hours. […]

Compound: CCCSc1nc(N[C@@H]2C[C@H]2c2ccc(F)c(F)c2)c2nnn([C@@H]3C[C@H](OCCO)[C@@H](O)[C@H]3O)c2n1 [Ticagrelor]
- Log P of Second Active Agent [1]: 1.90
- Log P [1]: Log P - 1.90

Compound: COC(=O)/C=C/C(=O)OC [Dimethyl Fumarate, Dimethyl fumarate]
- Log P [1]: Log P - 0.62

Compound: O=c1c2ccccc2[se]n1-c1ccccc1 [Ebselen]
- Log P [1]: Log P - 2.65

Compound: Anakinra: recombinant and slightly modified version of the human interleukin 1 receptor antagonist protein
- Log P [1]: Log P - 2.69

Compound: OCc1c[nH]c2ccccc12 [indole-3-carbinol, 1H-indol-3-ylmethanol]
- conversion products [2]: converts to DIM and LTR

Compound: CCCCCCCCc1ccc(CCC(N)(CO)CO)cc1 [Fingolimod]
- Log P of Second Active Agent [1]: 5.25
- Log P [1]: Log P - 5.25

Compound: c1ccc2c(Cc3c[nH]c4ccccc34)c[nH]c2c1 [DIM, 3,3′-diindolylmethane]
- extracellular DNA positive cells (microscopy) ([3]; 3 μM to 30 μM DIM): dose response
- visualization of extracellular DNA (microscopy) ([3]; API (free) DIM, F Protein and LPS, 4 h): inhibited visualization of extracellular DNA
- thrombus composition (H&E) versus Vehicle Control [4]: less compact thrombi, primarily composed of red cells (RBCs), with a minimum of fibrin and lower presence of leukocytes
- tissue distribution [5]: concentrates in brain tissue
- delay in DNA release versus absence of DIM ([6]; F protein and LPS stimulated neutrophils): about 1 hours
- IC50 ([6]; Homo sapiens, Neutrophil, free DIM (crystalline, in DMSO), read-out: estimated IC50, inhibition of DNA release): 3 to 30 µM
- effect on DNA release (Sytox Orange) ([6]; free DIM in DMSO 1, 3, 10, 30 μM, F Protein 1 μg/ml): dose-dependent inhibitory effect
- spontaneous DNA release ([6]; non-stimulated neutrophils): did not inhibit
